Counter-ions that a name gives are not always drawn. Like-named read-outs stand apart in the source and are kept apart here.
Columns and labels:
[1] = molecular target: T1, recombinant human Lp-PLA2 (Homo sapiens, UniProt Q13093); test: Recombinant human Lp-PLA2 assay (rhLp-PLA2, PED6 assay); format: biochemical; details: upper limit for pIC50 in this assay is 9.3
T1 sequence (Q13093 22-441): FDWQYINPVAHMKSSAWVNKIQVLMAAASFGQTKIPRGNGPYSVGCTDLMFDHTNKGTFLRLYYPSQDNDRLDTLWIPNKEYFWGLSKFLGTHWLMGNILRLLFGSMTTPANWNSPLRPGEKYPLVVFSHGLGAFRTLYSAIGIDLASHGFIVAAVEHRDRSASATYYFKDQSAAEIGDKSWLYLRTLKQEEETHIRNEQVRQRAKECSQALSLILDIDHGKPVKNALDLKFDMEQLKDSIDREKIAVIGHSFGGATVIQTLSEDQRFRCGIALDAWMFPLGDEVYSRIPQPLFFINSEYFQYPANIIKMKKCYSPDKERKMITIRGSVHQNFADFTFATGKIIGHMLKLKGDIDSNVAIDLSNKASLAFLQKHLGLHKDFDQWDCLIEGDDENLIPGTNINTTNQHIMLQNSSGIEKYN
Source text: (1) Recombinant Human Lp-PLA2 Assay (rhLp-PLA2) (Also Referred to as “PED6” Assay)
N-((6-(2,4-dinitrophenyl)amino)-hexanoyl)-2-(4,4-difluoro-5,7-dimethyl-4-bora-3a,4a-diaza-s-indacene-3-pentanoyl)-1-hexadecanoyl-sn-glycero-3-phosphoethanolamine, triethylammonium salt (PED6) is a commercially available fluorescently-labeled phospholipid, which is commercially available from Invitrogene and Molecular Probes. There is a quenching […] and a Bodipy fluorescein (FL) group in the sn2 position. Upon cleavage with Lp-PLA2, the Bodipy FL group is liberated and then may result in an increase in fluorescence. Inhibitors of Lp-PLA2 therefore prevent this cleavage and no fluorescent increase is observed.
The PED6 assay was run as an unquenched 10 μL assay. The source plate containing the compounds to be tested was prepared by making 1:3 (by volume) serial dilution of the compounds within DMSO on 384-well microplate. Then, 0.01 μL of the compounds on compound source plate were transferred into 384 well Greiner 784076 (black) plates using ECHO liquid dispenser. 5 μL of recombinant human Lp-PLA2 enzyme (4 nM (or 110 pM) rhLp-PLA2 in assay buffer of 50 mM HEPES, pH 7.4, 150 mM NaCl, 1 mM CHAPS) was added to each well of the plate. Plates were centrifuged for 10 sec at 500 rpm. After 30 minutes preincubation, 5 μL of substrate ([…] (or 5 μM) PED6 [from 5 mM DMSO stock] in assay buffer of 50 mM HEPES, pH 7.4, 150 mM NaCl, 1 mM CHAPS) was added to 384 well Greiner 784076 (black) plates. Plates were centrifuged for 10 sec at 500 rpm. The plate was covered to protect it from light and incubated for 20 min at room temperature. The plates were read for fluorescence intensity at ex: 480/em: 540 using ViewLux microplate imager for Envision spectrofluoroimeters pIC50 data, curve and QC analysis was conducted by using XL fit module in Excel.
The compounds described below were tested generally according to the PED6 assay described above.

Lp-PLA2 in human plasma = molecular target: T2, Lp-PLA2 in human plasma (Homo sapiens, UniProt Q13093); test: Lp-PLA2 human plasma assay (Thio-PAF assay); format: biochemical; details: pooled human plasma; read-out: pIC50 values in the thio-PAF assay (converted)
T2 construct: from tissue; host or cells: pooled human plasma
T2 sequence (Q13093 22-441): T1 sequence (Q13093 22-441)
Source text: The human plasma assay utilizes a thioester analog of PAF (phosphatidylcholine), where hydrolysis yields to the formation of a phospholipid containing a free thiol group. The amount of thiol is quantitated continuously by reacting with CPM (7-diethylamino-3-(4′-maleimidylphenyl)-4-methylcoumarin), a maleimide which increases in fluoresence after Michael addition of thiols. This assay may detect the activity of Lp-PLA2 in human plasma, as determined by specific inhibition by Lp-PLA2 inhibitors.
The thio-PAF assay was run as a quenched 15 μL assay. Compounds source plate was prepared by making 1:3 (by volume) serial dilution of the compounds into pure DMSO on 384-well microplate. 0.01 μL of compounds on compound source plate were transferred to 384 well Greiner 784076 (black) low-volume plates by ECHO liquid dispenser. 8 μL pooled human plasma, which was previously aliquoted and frozen, was added. Plates were centrifuged for 10 sec at 500 rpm. After 30 minutes preincubation, 2 μL of substrate solution comprising 2.5 mM 2-thio-PAF [from ethanol stock], […] CPM [from a DMSO stock] and 3.2 mM NEM (N-ethylmaleimide) [made fresh daily in DMSO] in assay buffer of 50 mM HEPES, pH 7.4, 150 mM NaCl, 1 mM CHAPS was added to 384 well Greiner 784076 (black) low-volume plates by BRAVO liquid handling station. After 2 mins, reaction was quenched with 5 μL of 5% aqueous trifluoroacetic acid (TFA). Plates were covered to protect from light and incubated for 40 min at room temperature. Plates were read at ex: 380/em: 485 using—Envision microplate reader. pIC50 data, curve and QC analysis was conducted by using XLFit module in Excel.

[2] = read-out: pIC50 values in the PED6 assay (converted)
[3] = Table 1, read-out: rhLp-PLA2 (PED6 assay) (pIC50) (converted)

Structure (SMILES)	IC50 [1, 2] [nM]	IC50 (Lp-PLA2 in human plasma) [nM]	IC50 [1, 3] [nM]
CN1CCCn2c1cc(OCc1ccc(Oc3cccc(C(F)(F)F)c3)c(C#N)c1)nc2=O [Example 1, 5-(((1-methyl-6-oxo-2,3,4,6-tetrahydro-1H-pyrimido[1,6-a]pyrimidin-8-yl)oxy)methyl)-2-(3-(trifluoromethyl)phenoxy)benzonitrile]	≤ 10	≤ 100	
CN1CCCn2c1cc(OCc1ccc(Oc3ccc(C(F)(F)F)cn3)c(C#N)c1)nc2=O [Example 2, 5-(((1-methyl-6-oxo-2,3,4,6-tetrahydro-1H-pyrimido[1,6-a]pyrimidin-8-yl)oxy)methyl)-2-((5-(trifluoromethyl)pyridin-2-yl)oxy)benzonitrile]	≤ 10	≤ 100	2.51
CN1CCCn2c1cc(OCc1cc(F)c(Oc3ccc(C(F)(F)F)nc3)c(F)c1)nc2=O [Example 3, 8-((3,5-difluoro-4-((6-(trifluoromethyl)pyridin-3-yl)oxy)benzyl)oxy)-1-methyl-3,4-dihydro-1H-pyrimido[1,6-a]pyrimidin-6(2H)-one]	≤ 1	≤ 100	1
CN1CCCn2c1cc(OCc1ccc(Oc3ccc(C(F)(F)F)nc3)c(F)c1)nc2=O [Example 4, 8-((3-fluoro-4-((6-(trifluoromethyl)pyridin-3-yl)oxy)benzyl)oxy)-1-methyl-3,4-dihydro-1H-pyrimido[1,6-a]pyrimidin-6(2H)-one]	≤ 10	≤ 100	
CN1CCCn2c1cc(OCc1ccc(Oc3ccc(F)c(F)c3)c(F)c1)nc2=O [Example 5, 8-((4-(3,4-difluorophenoxy)-3-fluorobenzyl)oxy)-1-methyl-3,4-dihydro-1H-pyrimido[1,6-a]pyrimidin-6(2H)-one]	≤ 10	≤ 100	
CN1CCCn2c1cc(OCc1ccc(Oc3ccc(Cl)c(C(F)(F)F)c3)cc1)nc2=O [Example 6, 8-((4-(4-chloro-3-(trifluoromethyl)phenoxy)benzyl)oxy)-1-methyl-3,4-dihydro-1H-pyrimido[1,6-a]pyrimidin-6(2H)-one]	≤ 10	≤ 1000	
CN1CCCn2c1cc(OCc1ccc(Oc3ccc(Cl)c(Cl)c3)cc1)nc2=O [Example 7, 8-((4-(3,4-dichlorophenoxy)benzyl)oxy)-1-methyl-3,4-dihydro-1H-pyrimido[1,6-a]pyrimidin-6(2H)-one]	≤ 1	≤ 100	0.794
CN1CCCn2c1cc(OCc1ccc(F)cc1)nc2=O [Example 8, 8-((4-fluorobenzyl)oxy)-1-methyl-3,4-dihydro-1H-pyrimido[1,6-a]pyrimidin-6(2H)-one]		≤ 1000	
CN1CCCn2c1cc(NCCc1ccc(Oc3ccc(Cl)c(C(F)(F)F)c3)cc1)nc2=O [Example 9, 8-((4-(4-chloro-3-(trifluoromethyl)phenoxy)phenethyl)amino)-1-methyl-3,4-dihydro-1H-pyrimido[1,6-a]pyrimidin-6(2H)-one, trifluoroacetic acid salt]		≤ 1000	
CN1CCCn2c1cc(OCc1ccc(F)c(F)c1)nc2=O [Example 10, 8-((3,4-difluorobenzyl)oxy)-1-methyl-3,4-dihydro-1H-pyrimido[1,6-a]pyrimidin-6(2H)-one, trifluoroacetic acid salt]	≤ 10	≤ 100	
CN1CCCn2c1cc(OCc1cccc(F)c1F)nc2=O [Example 12, 8-((2,3-difluorobenzyl)oxy)-1-methyl-3,4-dihydro-1H-pyrimido[1,6-a]pyrimidin-6(2H)-one]		≤ 1000	
CN1CCCn2c1cc(OCc1ccc(Oc3ccc(F)c(C(F)(F)F)c3)c(F)c1)nc2=O [Example 13, 8-((3-fluoro-4-(4-fluoro-3-(trifluoromethyl)phenoxy)benzyl)oxy)-1-methyl-3,4-dihydro-1H-pyrimido[1,6-a]pyrimidin-6(2H)-one]	≤ 10	≤ 100	
CN1CCCn2c1cc(OCc1ccc(Oc3ccc(F)c(F)c3)cc1)nc2=O [Example 14, 8-((4-(3,4-difluorophenoxy)benzyl)oxy)-1-methyl-3,4-dihydro-1H-pyrimido[1,6-a]pyrimidin-6(2H)-one]	≤ 10		
CN1CCCn2c1cc(OCc1ccc(F)cc1F)nc2=O [Example 20, 8-((2,4-difluorobenzyl)oxy)-1-methyl-3,4-dihydro-1H-pyrimido[1,6-a]pyrimidin-6(2H)-one]		≤ 1000	
CN1CCCn2c1cc(OCc1cccc(C#N)c1)nc2=O [Example 27, 3-(((1-methyl-6-oxo-2,3,4,6-tetrahydro-1H-pyrimido[1,6-a]pyrimidin-8-yl)oxy)methyl)benzonitrile]		≤ 100	
CN1CCCn2c1cc(OCc1cc(F)cc(F)c1)nc2=O [Example 31, 8-((3,5-difluorobenzyl)oxy)-1-methyl-3,4-dihydro-1H-pyrimido[1,6-a]pyrimidin-6(2H)-one]		≤ 1000	
CN1CCCn2c1cc(OCc1cc(F)cc(C#N)c1)nc2=O [Example 33, 3-fluoro-5-(((1-methyl-6-oxo-2,3,4,6-tetrahydro-1H-pyrimido[1,6-a]pyrimidin-8-yl)oxy)methyl)benzonitrile]		≤ 100	
CN1CCCn2c1cc(OCc1cccc(F)c1)nc2=O [Example 37, 8-((3-fluorobenzyl)oxy)-1-methyl-3,4-dihydro-1H-pyrimido[1,6-a]pyrimidin-6(2H)-one]		≤ 100	
CN1CCCn2c1cc(SCc1ccc(F)cc1)nc2=O [Example 66, 8-(4-Fluoro-benzylsulfanyl)-1-methyl-1,2,3,4-tetrahydro-pyrimido[1,6-a]pyrimidin-6-one]		≤ 1000	
CN1CCCn2c1cc(OCc1ccc(Oc3cncnc3)c(C#N)c1)nc2=O [Example 86, 5-(((1-methyl-6-oxo-2,3,4,6-tetrahydro-1H-pyrimido[1,6-a]pyrimidin-8-yl)oxy)methyl)-2-(pyrimidin-5-yloxy)benzonitrile]		≤ 1000	
Cc1ccc(Oc2ccc(COc3cc4n(c(=O)n3)CCCN4)cc2)cc1F [Example 108, 8-((4-(3-fluoro-4-methylphenoxy)benzyl)oxy)-3,4-dihydro-1H-pyrimido[1,6-a]pyrimidin-6(2H)-one]	≤ 10		
CN1CCCn2c1cc(OCCc1ccc(Oc3ccc(F)c(F)c3)cc1)nc2=O [Example 110, 8-(4-(3,4-difluorophenoxy)phenethoxy)-1-methyl-3,4-dihydro-1H-pyrimido[1,6-a]pyrimidin-6(2H)-one]	≤ 10		
O=c1nc(OCCc2ccc(F)c(F)c2)cc2n1CCCN2 [Example 111, 8-(3,4-difluorophenethoxy)-3,4-dihydro-1H-pyrimido[1,6-a]pyrimidin-6(2H)-one]		≤ 1000	
O=c1nc(OCCc2ccc(Cl)c(Cl)c2)cc2n1CCCN2 [Example 112, 8-(3,4-dichlorophenethoxy)-3,4-dihydro-1H-pyrimido[1,6-a]pyrimidin-6(2H)-one]		≤ 100	
